Laboratory results from PubChem BioAssay (NCI).
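Each compound was tested at five concentrations against cells in 96-well plates for 48 hours. GI50 = concentration required for 50% inhibition of growth. TGI: total growth inhibition.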

Legend:
Assay in all cases: NCI anticancer screen, dose series, 48 h
[1] = tested on: 786-0 renal
[2] = tested on: A498 renal
[3] = tested on: A549 NSCLC
[4] = tested on: ACHN renal
[5] = tested on: BT-549 breast
[6] = tested on: CCRF-CEM leukemia
[7] = tested on: COLO 205 colon
[8] = tested on: EKVX NSCLC
[9] = tested on: HCC-2998 colon
[10] = tested on: HCT-116 colon
[11] = tested on: HCT-15 colon
[12] = tested on: HL-60(TB) leukemia
[13] = tested on: HOP-62 NSCLC
[14] = tested on: HOP-92 NSCLC
[15] = tested on: HS 578T breast
[16] = tested on: HT29 colon
[17] = tested on: IGROV1 ovarian
[18] = tested on: K-562 leukemia
[19] = tested on: KM12 colon
[20] = tested on: LOX IMVI melanoma
[21] = tested on: M14 melanoma
[22] = tested on: MALME-3M melanoma
[23] = tested on: MCF7 breast
[24] = tested on: MDA-MB-231 breast
[25] = tested on: MDA-MB-435
[26] = tested on: MOLT-4 leukemia
[27] = tested on: NCI-H226 lung
[28] = tested on: NCI-H460 lung
[29] = tested on: NCI-H522 lung
[30] = tested on: OVCAR-3 ovarian
[31] = tested on: OVCAR-4 ovarian
[32] = tested on: OVCAR-5 ovarian
[33] = tested on: OVCAR-8 ovarian
[34] = tested on: PC-3 prostate
[35] = tested on: RPMI-8226 leukemia
[36] = tested on: RXF 393 renal
[37] = tested on: SF-268 CNS
[38] = tested on: SF-295 CNS
[39] = tested on: SF-539 CNS
[40] = tested on: SK-MEL-2 melanoma
[41] = tested on: SK-MEL-28 melanoma
[42] = tested on: SK-MEL-5 melanoma
[43] = tested on: SK-OV-3 ovarian
[44] = tested on: SN12C renal
[45] = tested on: SNB-19 CNS
[46] = tested on: SNB-75 CNS
[47] = tested on: SR leukemia
[48] = tested on: SW-620 colon
[49] = tested on: T-47D breast
[50] = tested on: TK-10 renal
[51] = tested on: U251 CNS
[52] = tested on: UACC-257 melanoma
[53] = tested on: UACC-62 melanoma
[54] = tested on: UO-31 renal

Compound: Cc1cc(N(CCNc2ccnc3cc(Cl)ccc23)Cc2cccs2)nc(Cl)n1
- GI50 [1]: 0.429 µM
- TGI [1]: 1.63 µM
- GI50 [2]: 1.68 µM
- TGI [2]: 4.15 µM
- GI50 [3]: 1.43 µM
- TGI [3]: 4.5 µM
- GI50 [4]: 1.44 µM
- TGI [4]: 2.75 µM
- GI50 [5]: 1.87 µM
- TGI [5]: 3.94 µM
- GI50 [6]: 2.07 µM
- TGI [6]: 5.41 µM
- GI50 [7]: 1.72 µM
- TGI [7]: 3.54 µM
- GI50 [8]: 2.08 µM
- TGI [8]: 7.38 µM
- GI50 [9]: 1.74 µM
- TGI [9]: 3.4 µM
- GI50 [10]: 0.526 µM
- TGI [10]: 2 µM
- GI50 [11]: 1.49 µM
- TGI [11]: 2.99 µM
- GI50 [12]: 1.99 µM
- TGI [12]: 3.84 µM
- GI50 [13]: 1.65 µM
- TGI [13]: 3.65 µM
- GI50 [14]: 1.16 µM
- TGI [14]: 2.61 µM
- GI50 [15]: 2.1 µM
- TGI [15]: 4.68 µM
- GI50 [16]: 1.45 µM
- TGI [16]: 3.1 µM
- GI50 [17]: 1.64 µM
- TGI [17]: 3.28 µM
- GI50 [18]: 1.02 µM
- TGI [18]: 3.47 µM
- GI50 [19]: 1.69 µM
- TGI [19]: 3.29 µM
- GI50 [20]: 1.47 µM
- TGI [20]: 2.89 µM
- GI50 [21]: 1.54 µM
- TGI [21]: 3.19 µM
- GI50 [22]: 1.62 µM
- TGI [22]: 3.17 µM
- GI50 [23]: 1.53 µM
- TGI [23]: 3.13 µM
- GI50 [24]: 1.49 µM
- TGI [24]: 3.06 µM
- GI50 [25]: 1.56 µM
- TGI [25]: 3.05 µM
- GI50 [26]: 2.48 µM
- TGI [26]: 5.57 µM
- GI50 [27]: 1.83 µM
- TGI [27]: 3.83 µM
- GI50 [28]: 1.13 µM
- TGI [28]: 2.58 µM
- GI50 [29]: 1.44 µM
- TGI [29]: 3.55 µM
- GI50 [30]: 1.43 µM
- TGI [30]: 2.83 µM
- GI50 [31]: 1.39 µM
- TGI [31]: 2.94 µM
- GI50 [32]: 1.64 µM
- TGI [32]: 3.53 µM
- GI50 [33]: 2.21 µM
- TGI [33]: 5.33 µM
- GI50 [34]: 1.69 µM
- TGI [34]: 3.94 µM
- GI50 [35]: 1.97 µM
- TGI [35]: 4.55 µM
- GI50 [36]: 1.45 µM
- TGI [36]: 2.92 µM
- GI50 [37]: 1.83 µM
- TGI [37]: 4.04 µM
- GI50 [38]: 1.32 µM
- TGI [38]: 2.77 µM
- GI50 [39]: 1.83 µM
- TGI [39]: 3.29 µM
- GI50 [40]: 1.84 µM
- TGI [40]: 3.54 µM
- GI50 [41]: 1.61 µM
- TGI [41]: 3.18 µM
- GI50 [42]: 1.74 µM
- TGI [42]: 3.17 µM
- GI50 [43]: 1.8 µM
- TGI [43]: 3.24 µM
- GI50 [44]: 1.58 µM
- TGI [44]: 3.19 µM
- GI50 [45]: 2.11 µM
- TGI [45]: 5.62 µM
- GI50 [46]: 1.5 µM
- TGI [46]: 2.9 µM
- GI50 [47]: 1.02 µM
- TGI [47]: 4.02 µM
- GI50 [48]: 1.4 µM
- TGI [48]: 3 µM
- GI50 [49]: 1.12 µM
- TGI [49]: 2.88 µM
- GI50 [50]: 1.62 µM
- TGI [50]: 2.99 µM
- GI50 [51]: 0.893 µM
- TGI [51]: 2.28 µM
- GI50 [52]: 1.84 µM
- TGI [52]: 3.56 µM
- GI50 [53]: 1.69 µM
- TGI [53]: 3.19 µM
- GI50 [54]: 1.3 µM
- TGI [54]: 2.6 µM
